Series [1] concerns the target T1, Transient receptor potential cation channel subfamily M member 7 (Mus musculus, UniProt Q923J1). The format is cell-based, HEK293.
Description: Inhibition of FLAG-tagged mouse TRPM7 transfected in HEK293 cells assessed as inhibition of channel-mediated Mn2+ influx incubated for ~15 mins and measured for 90 secs by Fura-2-dye based fluorescence analysis
The target of series [2] is T1, Transient receptor potential cation channel subfamily M member 7. As to the kind of experiment: Inhibition of mouse TRPM7 transfected in HEK293T cells assessed as inhibition of channel current in absence of intracellular Mg2+ by whole cell patch clamp analysis. The series is classed as cell-based. (In general: The patch-clamp technique gives a direct electrical read-out from membranes.)

The target of series [3] is T2, Transient receptor potential cation channel subfamily M member 7 (Homo sapiens, UniProt Q96QT4). As to the kind of experiment: Inhibition of human TRPM7 transfected in HEK293 cells assessed as inhibition of channel current by whole cell patch clamp analysis. The format is cell-based.
The target of series [4] is T1, Transient receptor potential cation channel subfamily M member 7. Description: Inhibition of mouse TRPM7 transfected in HEK293 cells assessed as inhibition of channel current in absence of intracellular Mg2+ by whole cell patch clamp analysis. The series is classed as cell-based.
Series [5] shares this target. As to the kind of experiment: Inhibition of mouse TRPM7 transfected in HEK293 cells assessed as inhibition of channel current in presence of 780 uM free intracellular Mg2+ by whole cell patch clamp analysis. The format is cell-based.
The target is the same in series [6]. Description: Inhibition of mouse TRPM7 transfected in HEK293 cells assessed as inhibition of channel current in presence of 300 uM free intracellular Mg2+ by whole cell patch clamp analysis. The series is classed as cell-based.
Series [7] has the same target. Description: Inhibition of HA-tagged mouse TRPM7 transfected in HEK293 cells assessed as inhibition of channel current by whole cell patch clamp analysis. The format is cell-based.
The target of series [8] is T2, Transient receptor potential cation channel subfamily M member 7. As to the kind of experiment: Inhibition of human TRPM7 transfected in Tet-inducible HEK293-T-REx cells assessed as inhibition of channel current in presence of 780 uM intracellular Mg2+ by whole cell patch clamp analysis. The format is cell-based.
The target is the same in series [9]. Description: Covalent inhibition of human TRPM7 transfected in Tet-inducible HEK293-T-REx cells assessed as inhibition of channel current at 10 uM incubated for 50 to 150 secs by whole cell patch clamp analysis. The format is cell-based. The note with it: time 50-150 sec.
A short description of series [10]: 1-Octanol/water partition coefficient, log P of the compound by LC-MS analysis. The format is physicochemical.
Series [11] addresses T1, Transient receptor potential cation channel subfamily M member 7. Description: Inhibition of mouse TRPM7 expressed in HEK293 cells assessed as inhibition of channel current in presence of 700 uM intracellular Mg2+ by whole cell patch clamp analysis. The series is classed as cell-based.
The target of series [12] is T2, Transient receptor potential cation channel subfamily M member 7. As to the kind of experiment: Irreversible covalent inhibition of human TRPM7 transfected in Tet-inducible HEK293-T-REx cells assessed as inhibition of channel current at 10 uM incubated for 50 to 150 secs and measured for 10 mins after drug wash-out by whole cell patch clamp analysis. The format is cell-based. The note with it: time 50-150 sec.

Data on 13 molecules can be found in ChEMBL document CHEMBL5385949, “Transient Receptor Potential Melastatin 7 (TRPM7) Ion Channel Inhibitors: Preliminary SAR and Conformational Studies of Xenicane Diterpenoids from the Hawaiian Soft Coral Sarcothelia edmondsoni” (J Nat Prod, 2024).

Activity calls are given as the source filed them. The rule behind the calls is not given here. Bounds are passed on as bounds.

T1 sequence (Q923J1 whole entry): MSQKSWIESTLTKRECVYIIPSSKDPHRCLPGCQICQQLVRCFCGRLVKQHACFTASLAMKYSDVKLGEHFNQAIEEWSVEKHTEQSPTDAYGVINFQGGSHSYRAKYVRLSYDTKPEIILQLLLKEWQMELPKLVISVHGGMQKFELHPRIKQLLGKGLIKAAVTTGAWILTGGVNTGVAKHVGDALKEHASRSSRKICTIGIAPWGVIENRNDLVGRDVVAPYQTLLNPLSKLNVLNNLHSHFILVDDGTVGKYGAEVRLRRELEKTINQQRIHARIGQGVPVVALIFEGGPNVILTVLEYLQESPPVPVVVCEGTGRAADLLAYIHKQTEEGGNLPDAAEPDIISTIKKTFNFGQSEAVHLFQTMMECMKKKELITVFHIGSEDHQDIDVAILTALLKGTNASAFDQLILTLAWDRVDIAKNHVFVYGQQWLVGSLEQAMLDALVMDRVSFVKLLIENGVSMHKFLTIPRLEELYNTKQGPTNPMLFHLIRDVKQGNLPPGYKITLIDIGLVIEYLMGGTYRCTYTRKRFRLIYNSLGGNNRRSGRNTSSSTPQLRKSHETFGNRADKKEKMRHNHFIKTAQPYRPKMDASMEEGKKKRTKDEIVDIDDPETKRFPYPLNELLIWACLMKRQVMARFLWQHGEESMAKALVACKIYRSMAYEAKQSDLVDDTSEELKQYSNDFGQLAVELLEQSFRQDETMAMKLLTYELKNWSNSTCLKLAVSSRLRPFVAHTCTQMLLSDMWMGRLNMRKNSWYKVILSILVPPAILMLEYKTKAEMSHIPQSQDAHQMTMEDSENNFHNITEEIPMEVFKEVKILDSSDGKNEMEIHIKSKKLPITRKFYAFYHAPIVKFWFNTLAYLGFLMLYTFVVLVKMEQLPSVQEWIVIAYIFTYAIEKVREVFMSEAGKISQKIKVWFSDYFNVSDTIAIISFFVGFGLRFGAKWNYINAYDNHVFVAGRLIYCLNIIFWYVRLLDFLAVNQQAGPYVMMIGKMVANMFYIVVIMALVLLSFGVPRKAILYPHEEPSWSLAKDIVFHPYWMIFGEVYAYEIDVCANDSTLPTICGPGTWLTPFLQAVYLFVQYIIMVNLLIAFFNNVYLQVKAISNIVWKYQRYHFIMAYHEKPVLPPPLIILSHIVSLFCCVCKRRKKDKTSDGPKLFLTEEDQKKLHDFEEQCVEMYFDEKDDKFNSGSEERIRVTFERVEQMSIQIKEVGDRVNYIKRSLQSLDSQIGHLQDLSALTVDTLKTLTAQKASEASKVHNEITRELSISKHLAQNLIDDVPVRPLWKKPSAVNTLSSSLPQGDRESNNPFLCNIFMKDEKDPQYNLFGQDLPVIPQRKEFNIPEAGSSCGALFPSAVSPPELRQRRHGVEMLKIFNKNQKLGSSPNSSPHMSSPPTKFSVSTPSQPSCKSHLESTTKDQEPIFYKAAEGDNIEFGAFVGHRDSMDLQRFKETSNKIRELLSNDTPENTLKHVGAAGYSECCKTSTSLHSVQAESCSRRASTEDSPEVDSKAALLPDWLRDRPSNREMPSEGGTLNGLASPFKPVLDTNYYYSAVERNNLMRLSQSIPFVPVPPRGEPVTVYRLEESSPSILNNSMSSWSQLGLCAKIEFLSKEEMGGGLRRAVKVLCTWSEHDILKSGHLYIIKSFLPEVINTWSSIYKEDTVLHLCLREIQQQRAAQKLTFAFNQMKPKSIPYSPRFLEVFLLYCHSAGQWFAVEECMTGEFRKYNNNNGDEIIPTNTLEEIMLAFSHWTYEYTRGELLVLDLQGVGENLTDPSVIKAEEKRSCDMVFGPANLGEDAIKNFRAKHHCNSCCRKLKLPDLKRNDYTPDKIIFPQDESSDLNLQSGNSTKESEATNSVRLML
T2 sequence (Q96QT4 whole entry): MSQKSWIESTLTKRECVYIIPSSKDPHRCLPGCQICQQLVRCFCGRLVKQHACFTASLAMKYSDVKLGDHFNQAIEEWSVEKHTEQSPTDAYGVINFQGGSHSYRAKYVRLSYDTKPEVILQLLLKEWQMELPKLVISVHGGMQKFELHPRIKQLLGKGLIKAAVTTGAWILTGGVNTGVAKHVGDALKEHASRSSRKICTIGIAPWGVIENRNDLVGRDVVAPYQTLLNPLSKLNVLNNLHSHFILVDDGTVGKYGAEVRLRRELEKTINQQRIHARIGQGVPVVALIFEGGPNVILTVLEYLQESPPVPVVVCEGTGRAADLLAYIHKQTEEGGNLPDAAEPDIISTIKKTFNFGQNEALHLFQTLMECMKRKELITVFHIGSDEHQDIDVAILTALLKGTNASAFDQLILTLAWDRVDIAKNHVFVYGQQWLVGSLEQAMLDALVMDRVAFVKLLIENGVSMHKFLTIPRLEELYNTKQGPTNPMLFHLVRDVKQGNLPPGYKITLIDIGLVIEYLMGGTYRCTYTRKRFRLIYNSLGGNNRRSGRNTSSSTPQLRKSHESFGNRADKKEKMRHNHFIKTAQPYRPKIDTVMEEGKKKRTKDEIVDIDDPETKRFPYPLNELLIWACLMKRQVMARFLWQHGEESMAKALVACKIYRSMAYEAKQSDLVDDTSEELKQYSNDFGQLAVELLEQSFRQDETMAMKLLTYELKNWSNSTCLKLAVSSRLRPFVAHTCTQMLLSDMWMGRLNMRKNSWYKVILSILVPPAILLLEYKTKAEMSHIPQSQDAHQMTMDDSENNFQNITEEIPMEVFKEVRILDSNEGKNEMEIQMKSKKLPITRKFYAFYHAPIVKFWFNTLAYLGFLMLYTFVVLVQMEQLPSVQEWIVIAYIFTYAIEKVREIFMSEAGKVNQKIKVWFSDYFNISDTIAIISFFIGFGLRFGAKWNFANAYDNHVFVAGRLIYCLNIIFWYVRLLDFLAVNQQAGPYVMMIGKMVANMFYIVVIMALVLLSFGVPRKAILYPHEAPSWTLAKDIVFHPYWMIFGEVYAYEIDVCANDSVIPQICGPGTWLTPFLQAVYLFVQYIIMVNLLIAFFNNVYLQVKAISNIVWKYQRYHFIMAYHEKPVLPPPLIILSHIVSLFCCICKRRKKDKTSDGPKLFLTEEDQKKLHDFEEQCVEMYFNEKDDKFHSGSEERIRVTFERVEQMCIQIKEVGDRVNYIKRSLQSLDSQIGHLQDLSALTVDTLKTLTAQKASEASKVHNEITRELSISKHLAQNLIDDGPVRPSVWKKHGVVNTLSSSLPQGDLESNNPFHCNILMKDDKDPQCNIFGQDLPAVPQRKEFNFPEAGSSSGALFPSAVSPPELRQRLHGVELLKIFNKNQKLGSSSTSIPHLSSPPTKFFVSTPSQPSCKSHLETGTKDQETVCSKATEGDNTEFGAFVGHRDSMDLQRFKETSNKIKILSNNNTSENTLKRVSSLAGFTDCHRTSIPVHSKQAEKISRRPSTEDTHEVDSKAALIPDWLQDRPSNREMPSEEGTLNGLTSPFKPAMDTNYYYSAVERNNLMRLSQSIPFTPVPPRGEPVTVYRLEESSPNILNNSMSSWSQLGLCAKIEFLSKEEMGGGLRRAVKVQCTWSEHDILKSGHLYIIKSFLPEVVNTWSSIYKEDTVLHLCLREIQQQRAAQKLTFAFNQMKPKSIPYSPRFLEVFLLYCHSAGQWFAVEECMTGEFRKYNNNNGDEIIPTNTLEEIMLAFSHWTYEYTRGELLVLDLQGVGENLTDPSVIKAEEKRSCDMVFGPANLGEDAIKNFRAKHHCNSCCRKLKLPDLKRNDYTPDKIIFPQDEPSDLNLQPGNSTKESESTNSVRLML

For orientation: IC50 means the concentration at which inhibition is half-maximal. As for `C=C1CC[C@H](OC(C)=O)C(=C)CC[C@@H]2C([C@H](C/C=C(\C)COC(C)=O)OC(C)=O)=CO[C@H](OC(C)=O)[C@@H]12`, in series [1], the IC50 turned out to be 20 µM. Turning to `N#Cc1ccc(COC[C@H]2O[C@@H](n3c(NCc4ccc(Cl)c(Cl)c4)nc4c(N)ncnc43)[C@H](O)[C@@H]2O)cc1`, the IC50 in [2] turned out to be 110 nM. With `CCCCCc1cc(O)c(C/C=C(\C)CCC=C(C)C)c(O)c1C(=O)O` [CANNABIGEROLIC ACID], the IC50 in [3] is 2700 nM. Turning to `C=C1CC/C=C(\C)CC[C@H]2[C@H]1[C@H]1O[C@H](O)[C@]2(/C=C/C=C(\C)COC(C)=O)O1`, in series [1], the IC50 is greater than 150 µM. Take `c1ccc2c(c1)CCC[C@H]2Nc1nc2ccccc2[nH]1`: the IC50 in [4] came to 1600 nM; in series [5] it was 3.9 µM; in series [6], 5.9 µM.

Molecule `C=C1[C@@H]2[C@@H](OC(C)=O)OC=C([C@H](C/C=C(\C)COC(C)=O)OC(C)=O)[C@H]2CC[C@]2(C)O[C@H]2C[C@H]1O` yielded an IC50 in series [1] of 13 µM. In the case of `CCCCCCCCc1ccc(CCC(N)(CO)CO)cc1` [FINGOLIMOD], the IC50 in series [7] was found to be 720 nM.

Turning to `C=C1[C@@H]2[C@@H](OC(C)=O)OC=C([C@H](C/C=C(\C)COC(C)=O)OC(C)=O)[C@H]2CC/C(C)=C/C[C@H]1O`, the figures for the IC50 in [8] and in series [1] were 90 nM and 12 µM, respectively. For the molecule `C=C1CC[C@@H]2O[C@@]2(C)CC[C@@H]2C(C=O)=C[C@@H](/C=C(\C)COC(C)=O)[C@H](O)[C@@H]12`, the IC50 in series [1] was greater than 150 µM. The same measure, in the same setting: for `NCCOB(c1ccccc1)c1ccccc1` the value was 22 µM. Usually logP stands for the decadic logarithm of the partition coefficient of the neutral form, usually between octanol and water. A lower logP goes with a more hydrophilic compound. On to `C=C1CC/C=C(\C)CC[C@@H]2C([C@H](C/C=C(\C)COC(C)=O)OC(C)=O)=CO[C@H](OC(C)=O)[C@@H]12`, for which the inhibition result in series [9] and in series [12] was “Active” each time. Further, the IC50 in series [1] came out at 20 µM; in series [11] it was 16 nM. This molecule returned a logP in series [10] of 3.8. On to `C=C1CC/C=C(\C)CC[C@@H]2C([C@@H](O)C/C=C(\C)COC(C)=O)=CO[C@H](OC(C)=O)[C@@H]12`, for which the IC50 in [1] is greater than 130 µM.

In the case of `C=C1CC[C@@H]2O[C@@]2(C)CC[C@@H]2C([C@H](C/C=C(\C)COC(C)=O)OC(C)=O)=CO[C@H](OC(C)=O)[C@@H]12`, the half-inhibitory concentration (IC50) in [1] was determined as 33 µM.
